Assays:
[1] = molecular target: T1, Endothelin-A Receptor (porcine) (Sus scrofa, UniProt Q29010); assay: Endothelin Receptor-Assay, [125I]endothelin-1 binding, porcine cardiac ventricular muscle membrane; settings: 25° C., 60 minutes, concentration causing PMB=50%
T1 construct: a fraction of porcine cardiac ventricular muscle membrane; from tissue; host or cells: porcine cardiac ventricular muscle membrane
T1 sequence (Q29010 21-427): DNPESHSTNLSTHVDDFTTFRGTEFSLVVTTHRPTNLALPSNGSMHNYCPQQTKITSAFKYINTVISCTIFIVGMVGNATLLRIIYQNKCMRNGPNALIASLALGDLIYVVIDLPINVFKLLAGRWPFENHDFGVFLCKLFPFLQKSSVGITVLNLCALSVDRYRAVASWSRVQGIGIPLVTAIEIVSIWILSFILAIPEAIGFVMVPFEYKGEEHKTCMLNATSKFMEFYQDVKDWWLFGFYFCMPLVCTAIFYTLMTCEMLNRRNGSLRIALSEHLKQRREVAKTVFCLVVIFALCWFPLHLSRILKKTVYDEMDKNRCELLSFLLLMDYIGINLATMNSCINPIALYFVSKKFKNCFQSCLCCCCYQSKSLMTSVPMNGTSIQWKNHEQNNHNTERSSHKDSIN
Method: Endothelin-A receptors was prepared by diluting a fraction of porcine cardiac ventricular muscle membrane with an assay buffer [20 mM Tris-HCl, 2 mM EGTA (ethyleneglycol bis(2-aminoethylether) tetra acetic acid), 5 mM magnesium acetate, 0.1% BSA (bovine serum albumin), 0.03% NAN3, 0.5 mM PMSF (phenyl methyl sulfonyl fluoride), 20 μg/ml leupeptin, 4 μg/ml E-64 (products of the Peptide Institute), 1 μg/ml pepstatin, (pH 7.2)] to make a solution of the fraction of porcine cardiac ventricular membrane (12 μg/ml).
(§1) To 100 μl of each portion was added 5 nM [^125 I] endothelin-1 (2 μl). A dimethylsulfoxide solution (3 μl) of the sample was added thereto and incubated at 25° C. for 60 minutes.
And, to determine the maximum binding amount (B0) and non-specific binding amount (NSB), lots to which a dimethyl sulfoxide solution (3 μl) or a dimethyl sulfoxide solution (3 μl) containing endothelin-1 (10^-5 M) was added were also incubated. […]
(§2) Radioactivity on the filter was counted in a gamma-counter to determine the Percent Maximum Binding (PMB) in accordance with the following calculation formula.
The concentration causing PMB=50% was determined as IC50 value. […]

[2] = molecular target: T2, Endothelin-B Receptor (bovine) (Bos taurus, UniProt P28088); assay: Endothelin Receptor-Assay, [125I]endothelin-1 binding, bovine cerebral membrane; settings: 25° C., 60 minutes, concentration causing PMB=50%
T2 construct: a fraction of bovine cerebral membrane; from tissue; host or cells: bovine cerebral membrane
T2 sequence (P28088 27-441): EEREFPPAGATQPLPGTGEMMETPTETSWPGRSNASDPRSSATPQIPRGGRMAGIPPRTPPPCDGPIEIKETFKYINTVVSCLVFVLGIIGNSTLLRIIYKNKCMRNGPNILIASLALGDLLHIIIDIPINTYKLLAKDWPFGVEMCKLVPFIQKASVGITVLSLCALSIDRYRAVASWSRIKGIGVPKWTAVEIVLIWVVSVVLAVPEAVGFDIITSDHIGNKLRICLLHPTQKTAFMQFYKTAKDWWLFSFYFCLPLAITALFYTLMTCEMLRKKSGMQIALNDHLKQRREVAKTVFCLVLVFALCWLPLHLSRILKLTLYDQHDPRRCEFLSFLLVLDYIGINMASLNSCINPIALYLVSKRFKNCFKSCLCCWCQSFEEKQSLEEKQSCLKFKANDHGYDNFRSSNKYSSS
Method: Endothelin-B receptor was prepared by diluting a fraction of bovine cerebral membrane with the same assay buffer as mentioned above to make a solution having a concentration of 180 μg/ml.
as §1
And, to determine the maximum binding amount (B0) and non-specific binding amount (NSB), lots to which a dimethyl sulfoxide solution (3 μl) or a dimethyl sulfoxide solution (3 μl) containing endothelin-1 (10^-5 M) was added were also incubated.
(§3) These lots were supplemented with 0.05% CHAPS (3-[(3-[…])dimethylammonio]-1-propanesulfonate)-assay buffer (1.5 ml), subjected to filtration through a glass fiber filter GF/F (trade name; product of Wattman Ltd. (England)), and then washed with the same buffer (1.5 ml).
as §2
The concentration causing PMB=50% was determined as IC50 value.
PMB=[(B-NSB)/(B0 -NSB)]×100

[3] = molecular target: T3, Endothelin-A Receptor (human) (Homo sapiens, UniProt P25101); assay: Endothelin Receptor-Assay, [125I]endothelin-1 binding, insect cell (Sf9) membrane having human endothelin-A receptors; settings: human ETA, 25° C., 60 minutes, concentration causing PMB=50%
T3 construct: expressed in transfected cells; host or cells: Sf9 insect cells
T3 sequence (P25101 21-427): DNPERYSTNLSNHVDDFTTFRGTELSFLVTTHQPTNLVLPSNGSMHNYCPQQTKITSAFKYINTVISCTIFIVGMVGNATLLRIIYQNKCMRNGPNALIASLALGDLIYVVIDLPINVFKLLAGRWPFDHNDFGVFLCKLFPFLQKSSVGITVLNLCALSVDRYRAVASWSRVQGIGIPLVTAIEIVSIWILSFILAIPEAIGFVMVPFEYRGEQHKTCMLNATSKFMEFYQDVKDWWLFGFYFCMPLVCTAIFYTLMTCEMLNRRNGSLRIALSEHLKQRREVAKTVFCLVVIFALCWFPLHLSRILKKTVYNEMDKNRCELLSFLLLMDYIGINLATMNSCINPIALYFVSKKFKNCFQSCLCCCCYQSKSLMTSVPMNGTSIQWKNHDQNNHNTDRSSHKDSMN
Method: (§4) Endothelin (ET) receptors were prepared by diluting fractions of insect cell (Sf9) membrane having human endothelin-A (ETA) receptors or human endothelin-B (ETB) receptors appeared, with an assay buffer [20 mM Tris-HCl, 2 mM EGTA (ethyleneglycol bis(2-aminoethylether) tetra acetic acid), 5 mM magnesium acetate, 0.1% BSA (bovine serum albumin), 0.03% NAN3, 0.5 mM PMS F (phenyl methyl sulfonyl fluoride), 20 μg/ml leupeptin, 4 μg/ml E-64 (products of the Peptide Institute), 1 μg/ml pepstatin, (pH 7.2)] respectively in a concentration of 1.4 μg/ml in the former case and 0.7 μg/ml in the latter case.
as §1
(§5) And, to determine the maximum binding amount (B0) and non-specific binding amount (NSB), lots to which a dimethyl sulfoxide solution (3 μl) or a dimethyl sulfoxide solution (3 μl) containing endothelin-1 (10^-5 M) had been added, were also incubated.
as §3
(§6) Radioactivity on the filter was counted in a gamma-counter to determine the Percent Maximum Binding (PMB) in accordance with the aforesaid calculation formula. The concentration causing PMB=50% was determined as IC50 value.

[4] = molecular target: T4, Endothelin-B Receptor (human) (Homo sapiens, UniProt P24530); assay: Endothelin Receptor-Assay, [125I]endothelin-1 binding, insect cell (Sf9) membrane having human endothelin-B receptors; settings: human ETB, 25° C., 60 minutes, concentration causing PMB=50%
T4 construct: expressed in transfected cells; host or cells: Sf9 insect cells
T4 sequence (P24530 27-442): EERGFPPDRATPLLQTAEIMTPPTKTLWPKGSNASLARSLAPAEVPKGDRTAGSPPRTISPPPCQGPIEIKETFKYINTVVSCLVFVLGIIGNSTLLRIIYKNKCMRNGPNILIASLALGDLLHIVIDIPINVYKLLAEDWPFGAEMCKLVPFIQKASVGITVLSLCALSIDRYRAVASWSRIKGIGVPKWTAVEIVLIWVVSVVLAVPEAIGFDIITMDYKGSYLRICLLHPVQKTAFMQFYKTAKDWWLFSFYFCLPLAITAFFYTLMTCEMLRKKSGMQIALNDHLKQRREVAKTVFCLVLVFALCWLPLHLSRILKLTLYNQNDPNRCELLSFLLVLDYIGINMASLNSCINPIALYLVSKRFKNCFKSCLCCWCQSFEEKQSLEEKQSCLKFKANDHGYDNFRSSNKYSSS
Method: as §4, §1, §5, §3, §6

| SMILES | IC50 [1] | IC50 [2] | IC50 [3] | IC50 [4] |
| --- | --- | --- | --- | --- |
| CCOC(=O)c1c(C(C)C)nc2c(c1-c1ccc(C)cc1)c(=O)n(CC(=O)O)c(=O)n2Cc1ccccc1OC [Example 10, 2,4(1H,3H)-dioxo-6-ethoxycarbonyl-7-isopropyl-1-(2-methoxbenzyl)-5-(4-tolyl)pyrido[2,3-d]pyrimidine-3-acetic Acid] | 11 µM | 64 µM | 11 µM |  |
| CCOC(=O)c1c(C)nc2c(c1-c1ccc(OC)cc1)c(=O)n(CC(=O)O)c(=O)n2Cc1ccccc1OC [Example 12, 2,4(1H,3H)-dioxo-6-ethoxycarbonyl-7-methyl-1-(2-methoxybenzyl)-5-(4-methoxyphenyl)pyrido[2,3-d]pyrimidine-3-acetic Acid] | 18 µM | 130 µM | 22 µM |  |
| COc1ccccc1Cn1c(=O)n(CC(=O)O)c(=O)c2c(-c3ccc4ccccc4n3)c(C(=O)O)c(C(C)C)nc21 [Example 14, 2,4(1H,3H)-dioxo-6-carboxy-7-isopropyl-1-(2-methoxybenzyl)-5-(2-quinolyl)pyrido[2,3-d]pyrimidine-3-acetic Acid] |  |  | 3.7 µM | 67 µM |
| COc1ccc(Cn2c(=O)n(CC(=O)O)c(=O)c3c(-c4ccc5ccccc5n4)c(C(=O)O)c(C(C)C)nc32)c(OC)c1 [Example 15 Compound No. 4] |  |  | 0.89 µM | 95 µM |
| COc1ccccc1Cn1c(=O)n(CC(=O)OC(C)(C)C)c(=O)c2c(-c3ccc4ccccc4n3)c(C(=O)O)c(C(C)C)nc21 [Example 16, t-Butyl [2,4(1H,3H)-dioxo-6-carboxy-7-isopropyl-1-(2-methoxybenzyl)-5-(2-quinolyl)pyrido[2,3-d]pyrimidine]-3-acetate] |  |  | 1.6 µM | 69 µM |
| CCOC(=O)Cn1c(=O)c2c(-c3ccc4ccccc4n3)c(C(=O)O)c(C(C)C)nc2n(Cc2ccccc2OC)c1=O [Example 17 Compound No. 1] |  |  | 0.71 µM | 19 µM |
| COc1ccccc1Cn1c(=O)n(CC(=O)OC(C)(C)C)c(=O)c2c(-c3cc(=O)c4ccccc4[nH]3)c(C(=O)O)c(C(C)C)nc21 [Example 18, t-Butyl [2,4(1H,3H)-dioxo-6-carboxy-7-isopropyl-1-(2-methoxbenzyl)-5-[2-(4-quinolonyl)]pyrido[2,3-d]pyrimidine]-3-acetate] |  |  | 0.15 µM | 69 µM |
| CCOC(=O)Cn1c(=O)c2c(-c3cc(=O)c4ccccc4[nH]3)c(C(=O)O)c(C(C)C)nc2n(Cc2ccccc2OC)c1=O [Example 19 Compound No. 2] |  |  | 0.07 µM | 65 µM |
| CCOC(=O)Cn1c(=O)c2c(-c3cc(=O)c4ccccc4[nH]3)c(C(=O)O)c(C(C)C)nc2n(Cc2ccc(OC)cc2OC)c1=O [Example 19 Compound No. 5] |  |  | 0.98 µM | 23 µM |
| COc1ccccc1Cn1c(=O)n(CC(=O)O)c(=O)c2c(-c3cc(=O)c4ccccc4[nH]3)c(C(=O)O)c(C(C)C)nc21 [Example 20] |  |  | 0.12 µM | 14 µM |
| CSc1ccccc1Cn1c(=O)n(CC(=O)O)c(=O)c2c(-c3cc(=O)c4ccccc4[nH]3)c(C(=O)O)c(C(C)C)nc21 [Example 21 Compound No. 9] |  |  | 0.056 µM | 14 µM |
| CCOC(=O)c1c(C(C)C)nc2c(c1-c1cc(=O)c3ccccc3[nH]1)c(=O)n(CC(=O)O)c(=O)n2Cc1ccccc1OC [Example 23, 2,4(1H,3H)-dioxo-6-ethoxycarbonyl-7-isopropyl-1-(2-methoxybenzyl)-5-[2-(4-quinolonyl)]pyrido[2,3-d]pyrimidine-3-acetic Acid] |  |  | 0.92 µM | 4.3 µM |
| COc1ccccc1Cn1c(=O)n(CC(=O)O)c(=O)c2c(-c3ccc4ccccc4n3)c(C(=O)OCC(C)C)c(C(C)C)nc21 [Example 27, 2,4(1H,3H)-dioxo-6-isobutoxycarbonyl-7-isopropyl-1-(2-methoxybenzyl)-5-(2-quinolyl)pyrido[2,3-d]pyrimidine-3-acetic Acid] |  |  | 4.5 µM | 47 µM |
| CCOC(=O)c1c(C(C)C)nc2c(c1-c1ccc3ccccc3n1)c(=O)n(CC(=O)O)c(=O)n2Cc1ccccc1OC [Example 28 Compound No. 8] |  |  | 1.1 µM | 76 µM |
| COc1ccccc1Cn1c(=O)n(CC(=O)O)c(=O)c2c(-c3ccc4ccccc4n3)c(C(=O)OCCC#N)c(C(C)C)nc21 [Example 29, 2,4(1H,3H)-dioxo-6-cyanoethoxycarbonyl-7-isopropyl-1-(2-methoxybenzyl)-5-(2-quinolyl)pyrido[2,3-d]pyrimidine-3-acetic Acid] |  |  | 0.57 µM | 95 µM |
| CCOC(=O)Cn1c(=O)c2c(-c3cc(=O)c4ccccc4[nH]3)c(C(=O)O)c(C(C)C)nc2n(Cc2ccccc2SC)c1=O [Example 31, Ethyl [2,4(1H,3H)-dioxo-6-carboxy-7-isopropyl-1-(2-methylthiobenzyl)-5-[2-(4-quinolonyl)]pyrido[2,3-d]pyrimidine]-3-acetate] |  |  | 0.12 µM | 88 µM |
